In patent US12679878B2, “CRF2 receptor agonists and their use in therapy” (SANOFI, priority 2020, dated 2026):
Starred links: 1 amine or outer side, 2 acyl side, 3 side chain; linkers in the order of their positions; H or OH if unused. Non-standard residues stand in square brackets, D forms with d. Residues, ends and D or L forms follow the SMILES beside them. Groups on a side chain read outwards from the residue. No end group written: not given here. *: point of attachment. C16 diacid = O=C(O)CCCCCCCCCCCCCCC(=O)*; γGlu = O=C(O)[C@H](CCC(=O)[*:2])N[*:1]; Palmitoyl = CCCCCCCCCCCCCCCC(=O)*; AEEA = NCCOCCOCC(=O)O; Aib = CC(C)(N)C(=O)O

T1: human CRF2α receptor (Homo sapiens, UniProt Q13324)
T1 construct: expressed in transfected cells; host or cells: TeloHEAC
T1 sequence (Q13324 1-411): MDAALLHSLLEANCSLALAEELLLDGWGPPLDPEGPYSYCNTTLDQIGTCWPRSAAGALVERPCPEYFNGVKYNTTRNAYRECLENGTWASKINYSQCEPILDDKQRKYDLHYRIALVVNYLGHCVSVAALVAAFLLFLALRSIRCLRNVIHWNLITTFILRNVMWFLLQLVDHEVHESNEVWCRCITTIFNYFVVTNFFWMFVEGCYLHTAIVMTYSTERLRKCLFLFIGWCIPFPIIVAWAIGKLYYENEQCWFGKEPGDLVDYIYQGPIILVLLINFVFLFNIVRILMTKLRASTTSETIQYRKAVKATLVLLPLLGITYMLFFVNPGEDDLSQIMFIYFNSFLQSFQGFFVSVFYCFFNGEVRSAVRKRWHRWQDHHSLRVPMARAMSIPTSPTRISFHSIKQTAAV

T2: CRF1R receptor (anti-target) (UniProt P34998 24-415, limits assumed)
T2 sequence (looked up): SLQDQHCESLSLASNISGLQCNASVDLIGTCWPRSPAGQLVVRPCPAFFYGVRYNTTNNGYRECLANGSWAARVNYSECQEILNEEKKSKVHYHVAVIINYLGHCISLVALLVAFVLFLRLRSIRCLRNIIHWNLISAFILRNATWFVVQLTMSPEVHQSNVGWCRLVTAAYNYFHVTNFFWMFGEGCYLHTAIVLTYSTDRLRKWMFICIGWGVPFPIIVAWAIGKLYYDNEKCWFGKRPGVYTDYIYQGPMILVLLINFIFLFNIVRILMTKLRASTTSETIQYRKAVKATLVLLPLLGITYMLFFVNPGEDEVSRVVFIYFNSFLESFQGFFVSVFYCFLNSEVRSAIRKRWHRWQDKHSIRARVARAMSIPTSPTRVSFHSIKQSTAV

B1: peptide of SEQ ID NO: 187 (peptide)
peptide: IVLSLD[dV]PIKLK([γGlu-C16 diacid])QILLKQERQK[Aib]QREQAEKNKQILAQV-NH2
modifications: N-terminus assumed
SMILES: CC[C@H](C)[C@H](N)C(=O)N[C@H](C(=O)N[C@@H](CC(C)C)C(=O)N[C@@H](CO)C(=O)N[C@@H](CC(C)C)C(=O)N[C@@H](CC(=O)O)C(=O)N[C@@H](C(=O)N1CCC[C@H]1C(=O)N[C@H](C(=O)N[C@@H](CCCCN)C(=O)N[C@@H](CC(C)C)C(=O)N[C@@H](CCCCNC(=O)CC[C@H](NC(=O)CCCCCCCCCCCCCCC(=O)O)C(=O)O)C(=O)N[C@@H](CCC(N)=O)C(=O)N[C@H](C(=O)N[C@@H](CC(C)C)C(=O)N[C@@H](CC(C)C)C(=O)N[C@@H](CCCCN)C(=O)N[C@@H](CCC(N)=O)C(=O)N[C@@H](CCC(=O)O)C(=O)N[C@@H](CCCNC(=N)N)C(=O)N[C@@H](CCC(N)=O)C(=O)N[C@@H](CCCCN)C(=O)NC(C)(C)C(=O)N[C@@H](CCC(N)=O)C(=O)N[C@@H](CCCNC(=N)N)C(=O)N[C@@H](CCC(=O)O)C(=O)N[C@@H](CCC(N)=O)C(=O)N[C@@H](C)C(=O)N[C@@H](CCC(=O)O)C(=O)N[C@@H](CCCCN)C(=O)N[C@@H](CC(N)=O)C(=O)N[C@@H](CCCCN)C(=O)N[C@@H](CCC(N)=O)C(=O)N[C@H](C(=O)N[C@@H](CC(C)C)C(=O)N[C@@H](C)C(=O)N[C@@H](CCC(N)=O)C(=O)N[C@H](C(N)=O)C(C)C)[C@@H](C)CC)[C@@H](C)CC)[C@@H](C)CC)C(C)C)C(C)C

How the values were obtained:
human CRF2α receptor = molecular target: T1, human CRF2α receptor; assay: cAMP agonism at human CRF2α receptor in TeloHEAC cells, FA modified peptides (Example 19.9); format: cell-based; conditions: 0% HSA, relative to urocortin 2
Experimental: Agonism of compounds for human corticotropin-releasing factor 2α (CRF2α receptor) was determined by a functional assay measuring cAMP modulation upon treatment of TeloHEAC cells stably expressing human CRF2α receptor.
Compounds were dissolved at 0.5 mM in 100% DMSO and serially diluted (1:2) in 100% DMSO for 16 dilutions. 20 nL of each dilution was then transferred to 384-well assay plate using an acoustic droplet ejection instrument. 5 μL of compound buffer (1×HBSS; 20 mM HEPES, 2 mM IBMX, 0% or 0.2% HSA) were then added to each well.
Prior to use, frozen cells were thawed quickly at 37° C. and washed (5 min at 900 rpm) with 20 mL cell buffer (1×HBSS; 20 mM HEPES). Cells were resuspended in cell buffer and adjusted to a cell density of 800.000 cells/ml.
5 μL cells (final dell density: 4000 cells/well) were dispensed in the compound-containing 384-well assay plate and incubated for 30 minutes 37° C.
The CAMP level in treated cells was determined using the Cisbio 62AM4PEC kit according to manufacturer's instruction. Finally, plates were incubated for 1 h at room temperature before measuring the fluorescence ratio between 665/620 nm.
The percent activity value (E %) was calculated by setting 100 nM of urocortin 2 (UCN2) as 100%. The in vitro potency of the compounds was quantified by determining the concentrations that caused 50% activation of maximal response (EC50) relative to urocortin 2.

[1] = molecular target: T2, CRF1R receptor (anti-target); assay: cell-based or functional assay

Molecule | EC50 (human CRF2α receptor) [nM] | CRF1/CRF2 ratio (of EC50) [1] | CRF1 EC50 (cAMP, HTRF) [1] [nM]
CCCCCCCCCCCCCCCC(=O)N[C@@H](CCC(=O)NCCOCCOCC(=O)NCCOCCOCC(=O)NCCCC[C@H](NC(=O)[C@H](CC(C)C)NC(=O)[C@H](CCCCN)NC(=O)[C@@H](NC(=O)[C@@H]1CCCN1C(=O)[C@H](NC(=O)[C@H](CC(=O)O)NC(=O)[C@H](CC(C)C)NC(=O)[C@H](CO)NC(=O)[C@H](CC(C)C)NC(=O)[C@@H](NC(=O)[C@@H](N)[C@@H](C)CC)C(C)C)C(C)C)[C@@H](C)CC)C(=O)N[C@@H](CCC(N)=O)C(=O)N[C@H](C(=O)N[C@@H](CC(C)C)C(=O)N[C@@H](CC(C)C)C(=O)N[C@@H](CCCCN)C(=O)N[C@@H](CCC(N)=O)C(=O)N[C@@H](CCC(=O)O)C(=O)N[C@@H](CCCNC(=N)N)C(=O)N[C@@H](CCC(N)=O)C(=O)N[C@@H](CCCCN)C(=O)NC(C)(C)C(=O)N[C@@H](CCC(N)=O)C(=O)N[C@@H](CCCNC(=N)N)C(=O)N[C@@H](CCC(=O)O)C(=O)N[C@@H](CCC(N)=O)C(=O)N[C@@H](C)C(=O)N[C@@H](CCC(=O)O)C(=O)N[C@@H](CCCCN)C(=O)N[C@@H](CC(N)=O)C(=O)N[C@@H](CCCCN)C(=O)N[C@@H](CCC(N)=O)C(=O)N[C@H](C(=O)N[C@@H](CC(C)C)C(=O)N[C@@H](C)C(=O)N[C@@H](CCC(N)=O)C(=O)N[C@H](C(N)=O)C(C)C)[C@@H](C)CC)[C@@H](C)CC)C(=O)O [compound 205] (H-IVLSLD[dV]PIKLK([AEEA-AEEA-γGlu-Palmitoyl])QILLKQERQK[Aib]QREQAEKNKQILAQV-NH2; N-terminus assumed) | 0.32 |  | 
CCCCCCCCCCCCCCCC(=O)N[C@@H](CCC(=O)N[C@@H](CCC(=O)NCCOCCOCC(=O)NCCOCCOCC(=O)NCCCC[C@H](NC(=O)[C@H](CC(C)C)NC(=O)[C@H](CCCCN)NC(=O)[C@@H](NC(=O)[C@@H]1CCCN1C(=O)[C@H](NC(=O)[C@H](CC(=O)O)NC(=O)[C@H](CC(C)C)NC(=O)[C@H](CO)NC(=O)[C@H](CC(C)C)NC(=O)[C@@H](NC(=O)[C@@H](N)[C@@H](C)CC)C(C)C)C(C)C)[C@@H](C)CC)C(=O)N[C@@H](CCC(N)=O)C(=O)N[C@H](C(=O)N[C@@H](CC(C)C)C(=O)N[C@@H](CC(C)C)C(=O)N[C@@H](CCCCN)C(=O)N[C@@H](CCC(N)=O)C(=O)N[C@@H](CCC(=O)O)C(=O)N[C@@H](CCCNC(=N)N)C(=O)N[C@@H](CCC(N)=O)C(=O)N[C@@H](CCCCN)C(=O)NC(C)(C)C(=O)N[C@@H](CCC(N)=O)C(=O)N[C@@H](CCCNC(=N)N)C(=O)N[C@@H](CCC(=O)O)C(=O)N[C@@H](CCC(N)=O)C(=O)N[C@@H](C)C(=O)N[C@@H](CCC(=O)O)C(=O)N[C@@H](CCCCN)C(=O)N[C@@H](CC(N)=O)C(=O)N[C@@H](CCCCN)C(=O)N[C@@H](CCC(N)=O)C(=O)N[C@H](C(=O)N[C@@H](CC(C)C)C(=O)N[C@@H](C)C(=O)N[C@@H](CCC(N)=O)C(=O)N[C@H](C(N)=O)C(C)C)[C@@H](C)CC)[C@@H](C)CC)C(=O)O)C(=O)O [compound 206] (H-IVLSLD[dV]PIKLK([AEEA-AEEA-γGlu-γGlu-Palmitoyl])QILLKQERQK[Aib]QREQAEKNKQILAQV-NH2; N-terminus assumed) | 0.09 |  | 
CCCCCCCCCCCCCCCC(=O)N[C@@H](CCC(=O)NCCOCCOCC(=O)NCCOCCOCC(=O)NCCCC[C@H](NC(=O)[C@H](CC(C)C)NC(=O)[C@H](CCCCN)NC(=O)[C@@H](NC(=O)[C@@H]1CCCN1C(=O)[C@H](NC(=O)[C@H](CC(=O)O)NC(=O)[C@H](CC(C)C)NC(=O)[C@H](CO)NC(=O)[C@H](CC(C)C)NC(=O)[C@@H](NC(=O)[C@@H](N)[C@@H](C)CC)C(C)C)C(C)C)[C@@H](C)CC)C(=O)N[C@@H](CCC(N)=O)C(=O)N[C@H](C(=O)N[C@@H](CC(C)C)C(=O)N[C@@H](CC(C)C)C(=O)N[C@@H](CCCCN)C(=O)N[C@@H](CCC(N)=O)C(=O)N[C@@H](CCC(=O)O)C(=O)N[C@@H](CCCNC(=N)N)C(=O)N[C@@H](CCC(N)=O)C(=O)N[C@@H](CCCCN)C(=O)N[C@@H](CCCCN)C(=O)NC(C)(C)C(=O)N[C@@H](CCCNC(=N)N)C(=O)N[C@@H](CCC(N)=O)C(=O)N[C@@H](CCCCN)C(=O)N[C@@H](C)C(=O)N[C@@H](CCC(=O)O)C(=O)N[C@@H](CCCCN)C(=O)N[C@@H](CC(N)=O)C(=O)N[C@@H](CCCCN)C(=O)N[C@@H](CCC(N)=O)C(=O)N[C@H](C(=O)N[C@@H](CC(C)C)C(=O)N[C@@H](C)C(=O)N[C@@H](CCC(N)=O)C(=O)N[C@H](C(N)=O)C(C)C)[C@@H](C)CC)[C@@H](C)CC)C(=O)O [compound 210] (H-IVLSLD[dV]PIKLK([AEEA-AEEA-γGlu-Palmitoyl])QILLKQERQKK[Aib]RQKAEKNKQILAQV-NH2) | 2.98 |  | 
CCCCCCCCCCCCCCCC(=O)N[C@@H](CCC(=O)N[C@@H](CCC(=O)NCCOCCOCC(=O)NCCOCCOCC(=O)NCCCC[C@H](NC(=O)[C@H](CC(C)C)NC(=O)[C@H](CCCCN)NC(=O)[C@@H](NC(=O)[C@@H]1CCCN1C(=O)[C@H](NC(=O)[C@H](CC(=O)O)NC(=O)[C@H](CC(C)C)NC(=O)[C@H](CO)NC(=O)[C@H](CC(C)C)NC(=O)[C@@H](NC(=O)[C@@H](N)[C@@H](C)CC)C(C)C)C(C)C)[C@@H](C)CC)C(=O)N[C@@H](CCC(N)=O)C(=O)N[C@H](C(=O)N[C@@H](CC(C)C)C(=O)N[C@@H](CC(C)C)C(=O)N[C@@H](CCCCN)C(=O)N[C@@H](CCC(N)=O)C(=O)N[C@@H](CCC(=O)O)C(=O)N[C@@H](CCCNC(=N)N)C(=O)N[C@@H](CCC(N)=O)C(=O)N[C@@H](CCCCN)C(=O)N[C@@H](CCCCN)C(=O)NC(C)(C)C(=O)N[C@@H](CCCNC(=N)N)C(=O)N[C@@H](CCC(N)=O)C(=O)N[C@@H](CCCCN)C(=O)N[C@@H](C)C(=O)N[C@@H](CCC(=O)O)C(=O)N[C@@H](CCCCN)C(=O)N[C@@H](CC(N)=O)C(=O)N[C@@H](CCCCN)C(=O)N[C@@H](CCC(N)=O)C(=O)N[C@H](C(=O)N[C@@H](CC(C)C)C(=O)N[C@@H](C)C(=O)N[C@@H](CCC(N)=O)C(=O)N[C@H](C(N)=O)C(C)C)[C@@H](C)CC)[C@@H](C)CC)C(=O)O)C(=O)O [compound 211] (H-IVLSLD[dV]PIKLK([AEEA-AEEA-γGlu-γGlu-Palmitoyl])QILLKQERQKK[Aib]RQKAEKNKQILAQV-NH2) | 0.94 |  | 
B1 |  | > 500 | > 100
